System: patients with advanced solid tumors
Assay: Safety: treatment-emergent and senaparib-related adverse events graded per NCI CTCAE v4.03
Type: in vivo
Details: TEAE
Protocol: This phase I, open-label, multicenter, dose-escalation, and dose-expansion study was conducted at three national clinical institutions in China. […] At baseline, all patients enrolled in the dose-escalation phase had to have at least one evaluable lesion, and those in the dose-expansion period had to have at least one measurable lesion, according to Response Evaluation Criteria in Solid Tumors version 1.1 (RECIST v1.1).[16] Entry to the dose-expansion cohort required the presence of a BRCA mutation, with the exception of patients with ovarian carcinoma, fallopian tube carcinoma, and primary peritoneal carcinoma. Full study eligibility criteria are provided in Supplementary Table S1.
Dose escalation was conducted using a modified Fibonacci 3 + 3 method (Supplementary Fig. S1).[17] Patients were administered oral senaparib from a planned starting dose of 2 mg once daily (QD), with preliminary dose escalation to 120 mg via nine dose groups, in order of their entry into the study. At a given dose level, each patient received a single dose of senaparib followed by a 7-day washout period. They then entered a continuous dosing period to confirm the safety and PK profile, in which they received senaparib QD from day 1 to day 21 of each 3-week cycle. Progression to the next higher dose required approval from the Data Safety Monitoring Committee (DSMC) upon review of the safety and PK data of the previous dose. A 50-mg twice-daily (BID) dosing group was added (planned enrollment, n = 6 patients) based on a DSMC review of the safety, PK, and efficacy analysis of the completed QD dose groups in the phase I clinical trial of senaparib dose escalation in Australia (NCT03507543), which commenced prior to the start of this trial.
The dose-expansion period included 3 populations: dose groups in which at least one patient achieved complete response (CR) or partial response (PR) per RECIST v1.1[16] and 1 dose group higher (evaluated for safety), as well as the dose group at the maximum tolerated dose (MTD)/recommended phase II dose (RP2D). Each of these groups included those patients in the respective dose-escalation group plus a planned additional 10 patients (approximately 20 patients in the MTD/RP2D group) with BRCA^mut+ solid tumors (ovarian, breast, or prostate cancer were preferred, and ovarian cancer could be BRCA wild type). Patients received senaparib monotherapy orally QD or BID (50-mg dose only) over each 3-week cycle until disease progression or unacceptable toxicity.
DLTs were predefined toxicities (Supplementary Table S2) recorded over the 7 days following the single-dose administration of senaparib and during the first treatment cycle (day 1-day 21) for each dose group in the dose-escalation period only. The MTD was defined as the maximum dose at which ≤1/6 patients experienced a DLT. Senaparib PK parameters were derived from blood samples collected from patients after the single administration, and at regular intervals during the first cycle of the dose-escalation and dose-expansion periods. Plasma concentrations of senaparib were determined using high-performance liquid chromatography-tandem mass spectrometry. Tumor response was assessed every 6 weeks per RECIST v1.1,[16] recording objective response rate (ORR), disease control rate (DCR), duration of response (DOR), and progression-free survival (PFS) by dose level for all patients and for those harboring BRCA^mut+ tumors.

O=C(c1cc(Cn2c(=O)[nH]c(=O)c3c(F)cccc32)ccc1F)N1CCN(c2ncccn2)CC1 [Senaparib]
1 (25.0) n (%): ALT increased, All (50 mg BID n = 4) | AST increased, All (50 mg BID n = 4) | Asthenia, All (50 mg BID n = 4) | Hyponatremia, Gr≥3 (50 mg BID n = 4) | Platelet count decreased, All (50 mg BID n = 4)
3 (75.0) n (%): Anemia (incl. hemoglobin decreased), All (50 mg BID n = 4) | Hyponatremia, All (50 mg BID n = 4)
1 (20.0) n (%): Abdominal distension, All (20 mg QD n = 5) | Anemia (incl. hemoglobin decreased), All (20 mg QD n = 5) | Anemia (incl. hemoglobin decreased), Gr≥3 (20 mg QD n = 5) | Appetite decreased, All (20 mg QD n = 5) | Asthenia, All (20 mg QD n = 5) | Blood creatinine increased, All (20 mg QD n = 5) | Hypokalemia, All (20 mg QD n = 5) | Nausea, All (20 mg QD n = 5) | Pain in extremity, All (20 mg QD n = 5) | Pain in extremity, Gr≥3 (20 mg QD n = 5) | Platelet count decreased, All (20 mg QD n = 5) | Protein in urine, All (20 mg QD n = 5) | WBC decreased, All (20 mg QD n = 5) | Appetite decreased, All (60 mg QD n = 5) | Asthenia, All (60 mg QD n = 5)
1 (33.3) n (%): WBC decreased, All (10 mg QD n = 3) | Anemia (incl. hemoglobin decreased), All (40 mg QD n = 3) | Asthenia, All (40 mg QD n = 3) | Blood creatinine increased, All (40 mg QD n = 3)
2 (40.0) n (%): Abdominal distension, All (60 mg QD n = 5)
2 (50.0) n (%): Anemia (incl. hemoglobin decreased), Gr≥3 (50 mg BID n = 4) | Nausea, All (50 mg BID n = 4) | Vomiting, All (50 mg BID n = 4) | WBC decreased, All (50 mg BID n = 4)
0 n (%): Vomiting, Gr≥3 (10 mg QD n = 3) | WBC decreased, Gr≥3 (10 mg QD n = 3) | ALT increased, All (20 mg QD n = 5) | ALT increased, Gr≥3 (20 mg QD n = 5) | AST increased, All (20 mg QD n = 5) | AST increased, Gr≥3 (20 mg QD n = 5) | Abdominal distension, Gr≥3 (20 mg QD n = 5) | Appetite decreased, Gr≥3 (20 mg QD n = 5) | Asthenia, Gr≥3 (20 mg QD n = 5) | Blood bilirubin increased, All (20 mg QD n = 5) | Blood bilirubin increased, Gr≥3 (20 mg QD n = 5) | Blood creatinine increased, Gr≥3 (20 mg QD n = 5) | Hypokalemia, Gr≥3 (20 mg QD n = 5) | Hyponatremia, All (20 mg QD n = 5) | Hyponatremia, Gr≥3 (20 mg QD n = 5) | Nausea, Gr≥3 (20 mg QD n = 5) | Neutrophil count decreased, All (20 mg QD n = 5) | Neutrophil count decreased, Gr≥3 (20 mg QD n = 5) | Platelet count decreased, Gr≥3 (20 mg QD n = 5) | Protein in urine, Gr≥3 (20 mg QD n = 5) | Vomiting, All (20 mg QD n = 5) | Vomiting, Gr≥3 (20 mg QD n = 5) | WBC decreased, Gr≥3 (20 mg QD n = 5) | ALT increased, All (40 mg QD n = 3) | ALT increased, Gr≥3 (40 mg QD n = 3) | AST increased, All (40 mg QD n = 3) | AST increased, Gr≥3 (40 mg QD n = 3) | Abdominal distension, All (40 mg QD n = 3) | Abdominal distension, Gr≥3 (40 mg QD n = 3) | Anemia (incl. hemoglobin decreased), Gr≥3 (40 mg QD n = 3) | Appetite decreased, All (40 mg QD n = 3) | Appetite decreased, Gr≥3 (40 mg QD n = 3) | Asthenia, Gr≥3 (40 mg QD n = 3) | Blood bilirubin increased, All (40 mg QD n = 3) | Blood bilirubin increased, Gr≥3 (40 mg QD n = 3) | Blood creatinine increased, Gr≥3 (40 mg QD n = 3) | Hypokalemia, All (40 mg QD n = 3) | Hypokalemia, Gr≥3 (40 mg QD n = 3) | Hyponatremia, All (40 mg QD n = 3) | Hyponatremia, Gr≥3 (40 mg QD n = 3) | Nausea, All (40 mg QD n = 3) | Nausea, Gr≥3 (40 mg QD n = 3) | Neutrophil count decreased, All (40 mg QD n = 3) | Neutrophil count decreased, Gr≥3 (40 mg QD n = 3) | Pain in extremity, All (40 mg QD n = 3) | Pain in extremity, Gr≥3 (40 mg QD n = 3) | Platelet count decreased, All (40 mg QD n = 3) | Platelet count decreased, Gr≥3 (40 mg QD n = 3) | Protein in urine, All (40 mg QD n = 3) | Protein in urine, Gr≥3 (40 mg QD n = 3) | Vomiting, All (40 mg QD n = 3) | Vomiting, Gr≥3 (40 mg QD n = 3) | WBC decreased, All (40 mg QD n = 3) | WBC decreased, Gr≥3 (40 mg QD n = 3) | ALT increased, Gr≥3 (50 mg BID n = 4) | AST increased, Gr≥3 (50 mg BID n = 4) | Abdominal distension, All (50 mg BID n = 4) | Abdominal distension, Gr≥3 (50 mg BID n = 4) | Appetite decreased, All (50 mg BID n = 4) | Appetite decreased, Gr≥3 (50 mg BID n = 4) | Asthenia, Gr≥3 (50 mg BID n = 4) | Blood bilirubin increased, All (50 mg BID n = 4) | Blood bilirubin increased, Gr≥3 (50 mg BID n = 4) | Blood creatinine increased, All (50 mg BID n = 4) | Blood creatinine increased, Gr≥3 (50 mg BID n = 4) | Hypokalemia, All (50 mg BID n = 4) | Hypokalemia, Gr≥3 (50 mg BID n = 4) | Nausea, Gr≥3 (50 mg BID n = 4) | Neutrophil count decreased, All (50 mg BID n = 4) | Neutrophil count decreased, Gr≥3 (50 mg BID n = 4) | Pain in extremity, All (50 mg BID n = 4) | Pain in extremity, Gr≥3 (50 mg BID n = 4) | Platelet count decreased, Gr≥3 (50 mg BID n = 4) | Protein in urine, All (50 mg BID n = 4) | Protein in urine, Gr≥3 (50 mg BID n = 4) | Vomiting, Gr≥3 (50 mg BID n = 4) | WBC decreased, Gr≥3 (50 mg BID n = 4) | ALT increased, All (60 mg QD n = 5) | ALT increased, Gr≥3 (60 mg QD n = 5) | AST increased, All (60 mg QD n = 5) | AST increased, Gr≥3 (60 mg QD n = 5) | Abdominal distension, Gr≥3 (60 mg QD n = 5) | Anemia (incl. hemoglobin decreased), All (60 mg QD n = 5) | Anemia (incl. hemoglobin decreased), Gr≥3 (60 mg QD n = 5) | Appetite decreased, Gr≥3 (60 mg QD n = 5)
